Laboratory results as given in the supplement of paper PMC12533247.

Experiments:
[1] = tested on: primary dermal fibroblasts; assay: % change in live cells vs DMSO control; higher = less cytotoxic; settings: time (h post treatment): 48
Method: (§1)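 Cytotoxicity in uninfected 2D primary donor keratinocytes (20 h post treatment) and fibroblasts (48 h post treatment), measured with NucSpot live/dead dyes on IncuCyte. Live cells are normalised to the 0.2% DMSO control and shown as % change. Three biological replicates for each of donors 3, 4 and 5.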

[2] = tested on: primary keratinocytes; assay: as above; settings: time (h post treatment): 20
Method: as §1

[3] = tested on: HSV-1 K26-GFP infected primary human skin cells; assay: % change of HSV-1 GFP signal vs untreated infected cells; higher = less antiviral inhibition
Method: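 2D primary donor-derived keratinocytes (read at 20 hpi) and donor-matched dermal fibroblasts (read at 48 hpi) infected with GFP-HSV-1 K26 at MOI 1 and treated 1 h later with compound dilutions. IncuCyte GFP integrated intensity is normalised by subtracting mock-infected wells and dividing by untreated infected wells, shown as % change (-100 = full inhibition).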

[4] = tested on: HSV-1 K26-GFP infected 3D skin equivalent; assay: % change of tdTomato fibroblast signal relative to infected DMSO control; higher = higher signal (negative = inhibition / toxicity); settings: time (h post infection): 48
Method: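 Triplicate dose-response (0.04 to 10 uM) of 11 top compounds in 3D bioprinted skin equivalents (submerged and ALI models) infected with GFP-HSV-1 K26 at MOI 0.1 and fixed at 48 hpi. GFP (virus) and tdTomato (fibroblast viability) signals are normalised to per-plate controls.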

C=CC(=O)N1CC/C(=C\c2ccc(F)c([N+](=O)[O-])c2)C(=O)/C(=C/c2ccc(F)c([N+](=O)[O-])c2)C1 [VLX1570]
Settings	% change in live cells, donor: 3 [%]	% change in live cells, donor: 4 [%]	% change in live cells, donor: 5 [%]	% change of tdTomato fibroblast signal, model: ALI [%]	% change of tdTomato fibroblast signal, model: submerged [%]
[1], 0.082305 µM	-13	2.33	2	–	–
[1], 0.246914 µM	-15.3	0	4.67	–	–
[1], 0.740741 µM	-24	-1.33	4.33	–	–
[1], 2.22222 µM	-46.7	-3	-1.67	–	–
[1], 6.66667 µM	-100	-3	-20.7	–	–
[1], 20 µM	-101.3	-44	-98	–	–
[1], 60 µM	-98.7	-116	-96.7	–	–
[2], 0.082305 µM	-11.3	-13.3	-6.33	–	–
[2], 0.246914 µM	-24	-18	-10	–	–
[2], 0.740741 µM	-37.7	-13	-11	–	–
[2], 2.22222 µM	-54	-9.33	-10.7	–	–
[2], 6.66667 µM	-58.3	-66	-39	–	–
[2], 20 µM	-85.3	-70	-74.7	–	–
[2], 60 µM	-95	-99.33	-97.67	–	–
[4], 0.041152 µM	–	–	–	-0.238	0.174
[4], 0.123457 µM	–	–	–	-3.26	-4.91
[4], 0.37037 µM	–	–	–	-1.14	-4.63
[4], 1.111111 µM	–	–	–	-12.1	-15
[4], 3.33333 µM	–	–	–	-17.4	-33.6
[4], 10 µM	–	–	–	-25.4	-48

% change of HSV-1 GFP signal [%], [3]
Settings	0.001 µM	0.003 µM	0.0091 µM	0.0274 µM	0.0823 µM	0.2469 µM	0.7407 µM	2.2222 µM	6.6667 µM	20 µM
cell type: primary dermal fibroblasts, donor: 5, time (h post infection): 48	1.14	-5.38	-8.21	-7.07	-8.61	-9.37	-7.7	-10.9	-99.906	-99.87
cell type: primary keratinocytes, donor: 3, time (h post infection): 20	3.39	0.794	7.81	21.4	8.28	2.87	4.02	-1.2	-51.7	-92.7
cell type: primary keratinocytes, donor: 4, time (h post infection): 20	-7.51	-5.56	-6.93	-1.76	-3.15	-3.18	6.11	-25	-97.4	-100
cell type: primary keratinocytes, donor: 5, time (h post infection): 20	4.93	5.79	3.47	7.82	7.36	5.33	1.2	-8.44	-91.4	-99.966
